Consider two compounds from patent US20070244140A1, “Anilino-pyrimidine phenyl and benzothiophene analogs” (Wyeth, priority 2006, published 2007).

The melting point is the temperature of the solid-liquid transition.

`O=S(=O)(c1ccc(Nc2nccc(-c3ccc(C(F)(F)F)cc3)n2)cc1)N1CCOCC1` [Exemplary Compound 39, N-[4-(Morpholin-4-ylsulfonyl)phenyl]-4-[4-(trifluoromethyl)phenyl]pyrimidin-2-amine] returned a melting point of 240 to 241 °C.
Under `O=S(=O)(NCCCO)c1ccc(Nc2nccc(-c3ccc(C(F)(F)F)cc3)n2)cc1` [Exemplary Compound 68, N-(3-hydroxypropyl)-4-({4-[4-(trifluoromethyl)phenyl]pyrimidin-2-yl}amino)-benzenesulfonamide] stands 204 to 205 °C.
